Assay results as given in article PMC12469269, “Investigating SMR Peptide Interactions with Breast Cancer-Associated Proteins” (International Journal of Molecular Sciences, 2025).

Experiments:
[1] = test system: Jurkat T cells; experiment: exNef secretion, Mortalin scanning peptides (Figure 5A), Jurkat T cells; format: cell-based; conditions: for Jurkat GFP (exNef secretion): 50 ng / 200 μL peptide, 250 ng Nef-GFP plasmid, GFP fluorescence in media, SMRmut = 100, mean of three independent experiments
Description: To determine whether Mortalin-derived peptides can inhibit the secretion of extracellular Nef (exNef), Jurkat T cells were co-transfected with wild-type Nef-GFP and various scanning peptides derived from the substrate-binding domain of Mortalin (#56–#67). SMRwt and SMRmut peptides were included as positive and negative controls, respectively. After 48 h of incubation, GFP fluorescence in the culture media was measured as a proxy for exNef secretion.
(§1) Figure 5 Effects of Mortalin-derived peptides on inhibition of exNef and tumor exosome secretion. (A) Jurkat T cells were co-transfected with 250 ng of wild-type Nef-GFP plasmid and 50 ng of Mortalin-derived scanning peptides (#56–#67), including SMRwt and SMRmut as positive and negative controls. After 48 h, GFP fluorescence in culture media was measured to assess exNef secretion. Data represent mean ± SD from three independent experiments. Statistical significance was determined using a two-sample t-test assuming equal variances. (B) MDA-MB-231 cells were transfected with 50 ng of Mortalin-derived scanning peptides (#56–#67), including SMRwt and SMRmut controls. Cells were labeled with N-Rh-PE and incubated for 48 h. N-Rh-PE fluorescence in culture media was measured to assess exosome secretion. Data represent mean ± SD from three independent experiments. Statistical significance was determined using a two-sample t-test assuming equal variances. TEXT PRINTED IN THE PICTURE: (A) #56: Jurkat GFP (%): 117.84 (50 ng / 200 μL) | (A) #57: Jurkat GFP (%): 96.69 (50 ng / 200 μL) | (A) #58: Jurkat GFP (%): 91.89 (50 ng / 200 μL) | (A) #59: Jurkat GFP (%): 95.49 (50 ng / 200 μL) | (A) #60: Jurkat GFP (%): 98.25 (50 ng / 200 μL) | (A) #61: Jurkat GFP (%): 0.65 (50 ng / 200 μL) | (A) #62: Jurkat GFP (%): 0.51 (50 ng / 200 μL) | (A) #63: Jurkat GFP (%): 98.02 (50 ng / 200 μL) | (A) #64: Jurkat GFP (%): 95.37 (50 ng / 200 μL) | (A) #65: Jurkat GFP (%): 96.34 (50 ng / 200 μL) | (A) #66: Jurkat GFP (%): 92.28 (50 ng / 200 μL) | (A) #67: Jurkat GFP (%): 99.56 (50 ng / 200 μL) | (A) SMRwt: Jurkat GFP (%): 0.51 (50 ng / 200 μL) | (A) SMRmut: Jurkat GFP (%): 100 (50 ng / 200 μL) | (B) #56: MDA-MB-231 N-Rh-PE (%): 66.31 (50 ng / 200 μL) | (B) #57: MDA-MB-231 N-Rh-PE (%): 79.73 (50 ng / 200 μL) | (B) #58: MDA-MB-231 N-Rh-PE (%): 68.11 (50 ng / 200 μL) | (B) #59: MDA-MB-231 N-Rh-PE (%): 67.81 (50 ng / 200 μL) | (B) #60: MDA-MB-231 N-Rh-PE (%): 72.32 (50 ng / 200 μL) | (B) #61: MDA-MB-231 N-Rh-PE (%): 7.53 (50 ng / 200 μL) | (B) #62: MDA-MB-231 N-Rh-PE (%): 5.36 (50 ng / 200 μL) | (B) #63: MDA-MB-231 N-Rh-PE (%): 75.39 (50 ng / 200 μL) | (B) #64: MDA-MB-231 N-Rh-PE (%): 73.49 (50 ng / 200 μL) | (B) #65: MDA-MB-231 N-Rh-PE (%): 81.65 (50 ng / 200 μL) | (B) #66: MDA-MB-231 N-Rh-PE (%): 81.79 (50 ng / 200 μL) | (B) #67: MDA-MB-231 N-Rh-PE (%): 89.82 (50 ng / 200 μL) | (B) SMRwt: MDA-MB-231 N-Rh-PE (%): 6.11 (50 ng / 200 μL) | (B) SMRmut: MDA-MB-231 N-Rh-PE (%): 100 (50 ng / 200 μL)
To identify peptide sequences within Mortalin that modulate extracellular vesicle (EV) secretion, a panel of scanning peptides was synthesized and tested in Jurkat T cells. The peptides, listed in Table 1, were custom-synthesized with an average purity of 75% and used in transfection assays to evaluate their impact on EV release. Jurkat T cells (3 × 10^5) were co-transfected with 50 ng of individual Mortalin peptides […] 250 ng of wild-type Nef-GFP plasmid using Chariot™ transfection reagent. Transfection efficiency was confirmed by fluorescence microscopy after 48 h. EV secretion was assessed by measuring GFP fluorescence in the culture media, and statistical analysis was performed using unpaired two-factor t-tests (p < 0.05). Panel of Mortalin scanning peptides developed and tested for their effect EV secretion and Table S2. Mortalin Scanning Peptides Used in Transfection Assays, see the Supplementary Information. […]

[2] = test system: MDA-MB-231 cells; experiment: Tumor exosome secretion, Mortalin scanning peptides (Figure 5B), MDA-MB-231; format: cell-based, human; conditions: 48 h; for MDA-MB-231 N-Rh-PE (exosome secretion): 50 ng / 200 μL peptide, transfected, N-Rh-PE fluorescence in media, SMRmut = 100, mean of three independent experiments
Description: as §1
To assess the effect of Mortalin-derived peptides on tumor exosome secretion, MDA-MB-231 breast cancer cells were transfected with the same panel of scanning peptides and labeled with N-Rh-PE to track exosome release. Following incubation, N-Rh-PE fluorescence in the culture media was measured as a proxy for extracellular exosome levels. SMRwt and SMRmut peptides were again used as controls. […] Statistical analysis confirmed significant differences: SMRmut vs. #61 (p < 7.20 × 10^−7), SMRmut vs. #62 (p < 5.70 × 10^−7), and SMRmut vs. SMRwt (p < 5.96 × 10^−7).

Row | Substance | Jurkat GFP (exNef secretion) ([1]; 48 h) [%] | MDA-MB-231 N-Rh-PE (exosome secretion) [2] [%] | cluster formation / potential peptide aggregation ([1]; Jurkat exNef experiment) | p, SMRmut vs. peptide, exNef secretion ([1]; two-sample t-test assuming equal variances, 50 ng peptide, 48 h) | p, SMRmut vs. peptide, exosome secretion ([2]; two-sample t-test assuming equal variances, 50 ng peptide)
1 | ^66Ala-Gly-Phe-Pro-Val^70 [SMRmut, 5-mer negative control, Val66 changed to Ala] | 100 | 100 |  |  | 
2 | DQLPADECNKLKEEISKMRE [#61, Mortalin scanning peptide 61] | 0.65 | 7.53 | formed small clusters | < 1.47 × 10^−13 | < 7.20 × 10^−7
